In the NIST ThermoML archive (doi:10.1021/acs.jced.5b00242):

Test: xn = mol fraction of the nth substance listed
Settings: 101 kPa, Liquid; for viscosity: Stabinger Viscometer; for mass density: Vibrating tube method

CCn1cc[n+](C)c1.C[C@H](N)C(=O)[O-] [1-ethyl-3-methylimidazolium L-alaninate] + CCn1cc[n+](C)c1.N#C[C-](C#N)C#N
Settings	mass density, x2 = 0 [kg/m3]	mass density, x2 = 0.2506 [kg/m3]	mass density, x2 = 0.5 [kg/m3]	mass density, x2 = 0.7499 [kg/m3]	viscosity, x2 = 0 [mPa·s]	viscosity, x2 = 0.2506 [mPa·s]	viscosity, x2 = 0.5 [mPa·s]	viscosity, x2 = 0.7499 [mPa·s]
308.15 K	1116.6	1104	1092.3	1082.6	–	–	37.29	17.74
313.15 K	1113.5	1100.8	1089.1	1079.2	103.54	49.16	30.22	14.83
318.15 K	1110.5	1097.8	1085.9	1075.9	79.34	38.96	24.9	12.94
323.15 K	1107.5	1094.6	1082.7	1072.7	62.21	31.75	20.83	11.23
328.15 K	1104.4	1091.5	1079.5	1069.4	49.69	26.27	17.64	9.84
333.15 K	1101.3	1088.4	1076.3	1066.1	40.5	22.29	15.08	8.51
338.15 K	1098.3	1085.3	1073.1	1062.9	33.22	18.7	13.09	7.74
343.15 K	1095.2	1082.2	1069.9	1059.6	27.72	16.04	11.45	6.93
348.15 K	1092.1	1079.1	1066.6	1056.3	23.38	13.89	10.1	6.26
353.15 K	1088.9	1075.9	1063.1	1052.9	20.03	12.28	8.93	5.45
